Assay results reported in PMC7902631, “An ESCRT-dependent step in fatty acid transfer from lipid droplets to mitochondria through VPS13D−TSG101 interactions” (Nature Communications, 2021).

Assays:
VPS13D-LTD [1] = target: T1, VPS13D-LTD (Homo sapiens, UniProt Q5THJ4); test: native PAGE co-migration, fluorescence; type: binding; conditions: labelled compound; 4 °C, 3 h; 1.5 mg/ml protein
T1 construct: lipid transfer domain, residues 1-320; pET28a-6xHis-SUMO fusion, tag cleavage not mentioned; expressed in E. coli (DE3), Ni-NTA purified
T1 sequence (Q5THJ4 1-320): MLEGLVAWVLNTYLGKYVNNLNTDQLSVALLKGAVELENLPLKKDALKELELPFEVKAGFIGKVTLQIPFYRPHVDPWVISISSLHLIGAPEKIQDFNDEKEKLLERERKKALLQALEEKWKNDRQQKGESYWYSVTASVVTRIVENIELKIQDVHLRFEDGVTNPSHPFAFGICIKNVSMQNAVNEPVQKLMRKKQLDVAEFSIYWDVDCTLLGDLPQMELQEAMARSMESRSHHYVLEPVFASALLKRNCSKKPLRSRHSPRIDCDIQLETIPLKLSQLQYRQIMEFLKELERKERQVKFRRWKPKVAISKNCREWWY

VPS13D-LTD [2] = target: T1, VPS13D-LTD; test: competition with BODIPY-C16, native PAGE; type: binding; conditions: unlabeled, non-BSA-conjugated palmitic acid; competitor of BODIPY-C16
VAB-ΔPSAP-GFP (human) = test: co-IP; GFP-Trap agarose beads (ChromoTek) on lysates of HEK293 cells, by the manufacturer's protocol; GFP-tagged protein held, partner detected by western blot (anti-TSG101 or anti-Halo); 5% input

## O=C(O)CCCCCCCCCCCNc1ccc([N+](=O)[O-])c2nonc12 [C12, NBD-C12]
VPS13D-LTD [1]
  native PAGE co-migration, fluorescence: purified VPS13D-LTD could bind NBD-labeled fatty acids C12 (NBD-C12)

## CCCCCCCCCCCCCCCC(=O)O [palmitic acid]
VPS13D-LTD [2]
  competition with BODIPY-C16, native PAGE: palmitic acid, but not OA, could sufficiently outcompete BODIPY-C16 for binding to VPS13D-LTD

## Halo-TSG101 (from UniProt Q99816 1-390) (natural protein)
VAB-ΔPSAP-GFP (human)
  reduction of the interaction against VAB-GFP: 60%
